{"source": "patent US20190062322A1", "about": "“PUMA INHIBITOR, METHOD FOR PREPARATION THEREOF, AND USE THEREOF” (FOURTH MILITARY MEDICAL UNIVERSITY, priority 2016, published 2019)", "target": "Mcl-1 (Homo sapiens, UniProt Q07820)", "sequence (Q07820 whole entry, species assumed)": "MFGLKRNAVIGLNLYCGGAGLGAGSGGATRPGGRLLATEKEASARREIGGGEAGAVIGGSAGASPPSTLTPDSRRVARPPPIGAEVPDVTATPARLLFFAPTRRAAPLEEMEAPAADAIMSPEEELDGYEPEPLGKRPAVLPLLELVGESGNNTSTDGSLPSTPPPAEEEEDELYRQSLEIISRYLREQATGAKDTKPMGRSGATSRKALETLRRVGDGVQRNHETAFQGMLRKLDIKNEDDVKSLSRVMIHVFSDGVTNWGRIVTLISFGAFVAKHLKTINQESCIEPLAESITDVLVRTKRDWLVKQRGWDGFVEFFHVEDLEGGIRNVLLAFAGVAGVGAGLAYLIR", "assay": "FPA competition assay, inhibition of Mcl-1 / FITC-Mcl-BH3 binding", "settings": "250 nM Mcl-1 and 250 nM FITC-Mcl-BH3 probe, pH 7.5, cells printed in nM", "description": "Experiment 1 the Inhibition Assay of Compounds 1˜12 to Mcl-1\nFPA competition assays were adopted to evaluate the binding affinity of compounds to Mcl-1. The FITC labelled BH3 peptide of Mcl-1 (FITC-Mcl-BH3, FITC-AHx-KALETLRRVGD GVQRNHITAF-NH2) was synthesized and used as fluorescence probe in the FPA competition assays. The binding of FITC-Mcl-BH3 and Mcl-1 can enhance the polarized light. While the binding of compounds and Mcl-1 would reduce the polarization, IC50 is the compound concentration that displaces 50% of the fluorescent ligand from the ligand-receptor complex.\nAll assays were performed in the assay buffer (pH 7.5) composed of 20 mM Tris, 50 mM NaCl, 3 mM DTT and 2% DMSO. The FPA competition assays were carried out in the 96-well, black, flat-bottom plates (Nunc). To check the interference effects of candidate compounds on the interaction between Mcl-1 and FITC-Mcl-BH3, solutions containing 250 nM Mcl-1 and 250 nM fluorescence probes were titrated with […] selected compounds (0-128 μM, 2-times gradient) dissolved in the assay buffer. The emission fluorescence changes were recorded from 480 to 540 nm by TECAN Infinite M1000 Microplate Spectrophotometer with excitation wavelength being 450 nm. The IC50 were calculated.", "data": [{"smiles": "Cc1ccc(C=C2SC(N3CCN(CCO)CC3)=NC2=O)cc1", "note": "[Compound 3]", "values": [{"measurement": "IC50", "value": 401, "unit": "nM"}]}, {"smiles": "COc1ccc(/C=C2\\SC(N3CCN(CCO)CC3)=NC2=O)cc1", "note": "[Compound 4]", "values": [{"measurement": "IC50", "value": 161, "unit": "nM"}]}, {"smiles": "O=C1N=C(N2CCN(CCO)CC2)S/C1=C\\c1ccc(Cl)cc1", "note": "[Compound 5]", "values": [{"measurement": "IC50", "value": 89.7, "unit": "nM"}]}, {"smiles": "O=C1N=C(N2CCC(CCO)CC2)SC1=Cc1ccccc1", "note": "[Compound 8]", "values": [{"measurement": "IC50", "value": 589, "unit": "nM"}]}, {"smiles": "COc1ccc(C=C2SC(N3CCC(CCO)CC3)=NC2=O)cc1", "note": "[Compound 11]", "values": [{"measurement": "IC50", "value": 52.1, "unit": "nM"}]}, {"smiles": "O=C1N=C(N2CCC(CCO)CC2)SC1=Cc1ccc(Cl)cc1", "note": "[Compound 12]", "values": [{"measurement": "IC50", "value": 369, "unit": "nM"}]}]}
